Patent publication US20210122763A1, “OGA INHIBITOR COMPOUNDS” (Janssen Pharmaceutica NV, priority 2018, published 2021)

Experiments:
[1] = molecular target: T1, recombinant human Meningioma Expressed Antigen 5 (MGEA5), also referred to as O-GlcNAcase (OGA) (Homo sapiens, UniProt O60502); test: OGA biochemical assay (inhibition of FM-GlcNAc hydrolysis, fluorescence); settings: for Emax: read-out: Enzymatic Emax (%); for IC50: read-out: Enzymatic hOGA, pIC50 (converted)
T1 construct: Full length OGA enzyme was purchased at OriGene (cat #TP322411); purchased OriGene TP322411
T1 sequence (O60502 1-916): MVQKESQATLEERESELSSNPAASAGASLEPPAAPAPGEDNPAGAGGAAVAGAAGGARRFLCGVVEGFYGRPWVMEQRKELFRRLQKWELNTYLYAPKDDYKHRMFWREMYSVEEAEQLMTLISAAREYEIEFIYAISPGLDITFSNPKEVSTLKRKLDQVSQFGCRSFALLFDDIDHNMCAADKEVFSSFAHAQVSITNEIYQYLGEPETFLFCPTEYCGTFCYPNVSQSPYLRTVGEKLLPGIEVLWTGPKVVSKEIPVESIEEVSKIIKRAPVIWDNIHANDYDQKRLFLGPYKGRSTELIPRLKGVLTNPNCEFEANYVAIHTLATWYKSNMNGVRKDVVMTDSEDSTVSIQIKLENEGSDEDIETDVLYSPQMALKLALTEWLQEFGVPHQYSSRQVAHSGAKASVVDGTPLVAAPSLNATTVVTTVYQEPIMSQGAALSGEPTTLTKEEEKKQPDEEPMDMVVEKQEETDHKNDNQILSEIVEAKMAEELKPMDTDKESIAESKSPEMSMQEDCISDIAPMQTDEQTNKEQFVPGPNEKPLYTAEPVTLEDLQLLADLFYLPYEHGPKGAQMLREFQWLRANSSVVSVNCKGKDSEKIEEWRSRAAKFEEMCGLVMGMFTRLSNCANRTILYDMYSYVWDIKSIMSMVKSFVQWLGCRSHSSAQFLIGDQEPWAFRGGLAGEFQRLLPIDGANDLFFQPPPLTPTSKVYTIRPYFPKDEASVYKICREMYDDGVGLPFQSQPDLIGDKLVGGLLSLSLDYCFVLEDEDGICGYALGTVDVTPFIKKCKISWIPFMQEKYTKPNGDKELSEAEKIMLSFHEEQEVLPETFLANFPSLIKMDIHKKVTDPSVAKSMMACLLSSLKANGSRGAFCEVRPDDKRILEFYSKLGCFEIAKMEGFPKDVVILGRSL
Description: The assay is based on the inhibition of the hydrolysis of fluorescein mono-B-D-N-Acetyl-Glucosamine (FM-GcNAc) (Mariappa et al. 2015, Biochem J470:255) by the recombinant human Meningioma Expressed Antigen 5 (MGEA5), also referred to as O-GlcNAcase (OGA). The hydrolysis FM-GlcNAc (Marker Gene technologies, cat #M1485) results in the formation of B-D-N-glucosamineacetate and fluorescein. The fluorescence of the latter can be measured at excitation wavelength 485 nm and emission wavelength 538 nm. An increase in enzyme activity results in anincrease in fluorescence signal. Full length OGA enzyme was purchased at OriGene (cat #TP322411). The enzyme was stored in 25 mM Tris.HCl, pH 7.3, 100 mM glycine, 10% glycerol at −20° C. Thiamet G and GlcNAcStatin were tested as reference compounds (Yuzwa et al. 2008 Nature Chemical Biology 4:483; Yuzwa et al. 2012 Nature Chemical Biology 8:393). The assay was performed in 200 mM Citrate/phosphate buffer supplemented with 0.005% Tween-20. 35.6 g Na2HPO4 2H2O (Sigma, #C0759) were dissolved in 1 L water to obtain a 200 mM solution. 19.2 g citric acid (Merck, #1.06580) was dissolved in 1 L water to obtain a 100 mM solution. pH of the sodiumphosphate solution was adjusted with the citric acid solution to 7.2. The buffer to stop the reaction consists of a 500 mM Carbonate buffer, pH 11.0. 734 mg FM-GlcNAc were dissolved in 5.48 mL DMSO to obtain a 250 mM solution and was stored at −20° C. OGA was used at a 2 nM concentration and FM-GcNAc at a 100 uM final concentration. Dilutions were prepared in assay buffer.
50 nl of a compound dissolved in DMSO was dispensed on Black Proxiplate™ 384 Plus Assay plates (Perkin Elmer, #6008269) and 3 μl fl-OGA enzyme mix added subsequently. Plates were pre-incubated for 60 min at room temperature and then 2 μl FM-GlcNAc substrate mix added.
Plates were briefly centrifuged for 1 min at 1000 rpm and incubate at room temperature for 6 h. To stop the reaction 5 μl STOP buffer were added and plates centrifuge again 1 min at 1000 rpm. Fluorescence was quantified in the Thermo Scientific Fluoroskan Ascent or the PerkinElmer EnVision with excitation wavelength 485 nm and emission wavelength 538 nm.
For analysis a best-fit curve is fitted by a minimum sum of squares method. From this an IC50 value and Hill coefficient was obtained. High control (no inhibitor) and low control (saturating concentrations of standard inhibitor) were used to define the minimum and maximum values.

OGA = molecular target: T2, OGA (Homo sapiens, UniProt O60502); test: OGA cellular assay (ICC detection of O-GlcNAcylated proteins in HEK293 cells inducible for P301L mutant human Tau); format: cell-based; settings: 6 hours incubation; for Emax: HEK293, HEK293 cells inducible for P301L mutant human Tau; for EC50: read-out: Cellular hOGA, pEC50 (converted)
T2 construct: HEK293 cells inducible for P301L mutant human Tau (isoform 2N4R) were established at Janssen; endogenous in cells; host or cells: HEK293 cells inducible for P301L mutant human Tau (2N4R)
T2 sequence (O60502 1-916): T1 sequence (O60502 1-916)
Experimental: HEK293 cells inducible for P301L mutant human Tau (isoform 2N4R) were established at Janssen. Thiamet-G was used for both plate validation (high control) and as reference compound (reference EC50 assay validation). OGA inhibition is evaluated through the immunocytochemical (ICC) detection of O-GlcNAcylated proteins by the use of a monoclonal antibody (CTD110.6; Cell Signaling, #9875) detecting 0-GlcNAcylated residues as previously described (Dorfmueller et al. 2010 Chemistry & biology, 17:1250). Inhibition of OGA will result in an increase of 0-GlcNAcylated protein levels resulting in an increased signal in the experiment. Cell nuclei are stained with Hoechst to give a cell culture quality control and a rough estimate of immediate compounds toxicity, if any. ICC pictures are imaged with a Perkin Elmer Opera Phenix plate microscope and quantified with the provided software Perkin Elmer Harmony 4.1.
Cells were propagated in DMEM high Glucose (Sigma, #D5796) following standard procedures. 2 days before the cell assay cells are split, counted and seeded in Poly-D-Lysine (PDL) coated 96-wells (Greiner, #655946) plate at a cell density of 12,000 cells per cm^2 (4,000 cells per well) in 100p of Assay Medium (Low Glucose medium is used to reduce basal levels of GlcNAcylation) (Park et al. 2014 The Journal of biological chemistry 289:13519). At the day of compound test medium from assay plates was removed and replenished with 90 μl of fresh Assay Medium. 10 μl of compounds at a 10 fold final concentration were added to the wells. Plates were centrifuged shortly before incubation in the cell incubator for 6 hours. DMSO concentration was set to 0.2%. Medium is discarded by applying vacuum. For staining of cells medium was removed and cells washed once with 100 μl D-PBS (Sigma, #D8537). From next step onwards unless other stated assay volume was always 50p and incubation was performed without agitation and at room temperature. Cells were fixed in 50 μl of a 4% paraformaldehyde (PFA, Alpha aesar, #043368) PBS solution for 15 minutes at room temperature. […] Before analysis samples were washed 2 times manually for 5 minutes in ICC base buffer.
Imaging is performed using Perkin Elmer Phenix Opera using a water 20× objective and recording 9 fields per well. Intensity readout at 488 nm is used as a measure of O-GlcNAcylation level of total proteins in wells. To assess potential toxicity of compounds nuclei were counted using the Hoechst staining. IC50-values are calculated using parametric non-linear regression model fitting. As a maximum inhibition Thiamet G at a 200 uM concentration is present on each plate. In addition, a concentration response of Thiamet G is calculated on each plate.

[2] = HEK293 cells inducible for P301L mutant human Tau

Structure (SMILES)	Emax [1]	IC50 [1]	Emax (OGA; maximum = Thiamet G 200 uM)	EC50 (OGA; [2])	Enzymatic Emax (%) [1]	Cellular Emax (%) (OGA; HEK293 cells inducible for P301L mutant human Tau, maximum = Thiamet G 200 uM)
Cc1cc(OC2CCN(C(C)c3ccc4c(n3)OCCO4)CC2)cc(C(F)(F)F)n1 (centres unmarked) [Compound 17]	100%	39.8 nM	61%	316 nM	–	–
CC(c1ccc2c(n1)OCCO2)N1CCC(Oc2ncc(F)cc2F)CC1 (centres unmarked) [Compound 52]	96%	501 nM	16%	> 1000 nM	–	–
COc1cc(OC2CCN(C(C)c3ccc4c(n3)OCCO4)CC2)cc(C)n1 (centres unmarked) [Compound 14]	100%	20 nM	82%	126 nM	–	–
Cc1cc(COC2CCN(C(C)c3nc4nc(C)sc4cc3F)CC2)cc(C)n1 (centres unmarked) [Compound 160]	96%	12.6 nM	87%	39.8 nM	–	–
Cc1cc(OC2CCN(C(C)c3nc4c(cc3F)OCCO4)CC2)nc(C)n1 (centres unmarked) [Compound 12]	99%	15.8 nM	74%	79.4 nM	–	–
Cc1cc(OC2CCN(C(C)c3cnc4c(c3)OCCO4)CC2)nc(C)n1 (centres unmarked) [Compound 13]	96%	501 nM	8%	> 1000 nM	–	–
Cc1cc(COC2CCN(C(C)c3nc4c(cc3F)OCCO4)CC2)cc(C)n1 (centres unmarked) [Compound 159]	94%	12.6 nM	75%	63.1 nM	–	–
CC(c1ccc2c(n1)OCCO2)N1CCC(Oc2ccnc(C#N)c2)CC1 (centres unmarked) [Compound 51]	100%	63.1 nM	60%	631 nM	–	–
Cc1ccc(OC2CCN(C(C)c3nc4c(cc3F)OCCO4)CC2)cn1 (centres unmarked) [Compound 94]	96%	10 nM	82%	95.5 nM	–	–

Next, values leading:

Emax [1]	IC50 [1]	Emax (OGA; maximum = Thiamet G 200 uM)	EC50 (OGA; [2])	Enzymatic Emax (%) [1]	Cellular Emax (%) (OGA; HEK293 cells inducible for P301L mutant human Tau, maximum = Thiamet G 200 uM)	Structure (SMILES)
101%	10 nM	68%	126 nM	–	–	Cc1cc(O[C@H]2CCN(C(C)c3ccc4c(n3)OCCO4)C[C@H]2C)cc(C)n1 (some centres unmarked) [Compound 28]
98%	31.6 nM	64%	100 nM	–	–	Cc1cc(OC2CCN(C(C)c3ccc4c(n3)OCCO4)CC2)cc(OC(C)C)n1 (centres unmarked) [Compound 124]
93%	1.58 nM	87%	31.6 nM	–	–	COc1cc(OC2CCN([C@@H](C)c3nc4nc(C)sc4cc3F)CC2)cc(C)n1 (single isomer, unassigned) [Compound 81]
90%	1000 nM	6%	> 1000 nM	–	–	Cc1cc(OC2CCN([C@@H](C)c3ccc4c(n3)OCC4)CC2)cc(C)n1 (single isomer, unassigned) [Compound 62]
93%	1260 nM	22%	> 1000 nM	–	–	Cc1cc(OC2CCN(C(C)c3cnc4c(c3)OCCO4)CC2)cc(C)n1 (centres unmarked) [Compound 5]
101%	7.94 nM	98%	25.1 nM	–	–	Cc1cc(OC2CCN(C(C)c3nc4c(cc3F)CCO4)CC2)c(Cl)c(C)n1 (centres unmarked) [Compound 35]
95%	631 nM	12%	> 1000 nM	–	–	CC(c1ccc2c(n1)OCCO2)N1CCC(Oc2ccncc2C#N)CC1 (centres unmarked) [Compound 104]
90%	2000 nM	18%	> 1000 nM	–	–	Cc1cc(CC2(F)CCN(C(C)c3ccc4c(n3)OCCO4)CC2)cc(C)n1 (centres unmarked) [Compound 73]
–	7940 nM	–	> 1000 nM	55%	−8%	COc1cc(OC2CCN(C(C)c3ccc4c(n3)OCCO4)CC2)cc(C)n1 (single isomer, unassigned) [Compound 53]
97%	126 nM	63%	~501 nM	–	–	Cc1cc(COC2CCN(C(C)c3ccc4c(n3)OCCO4)CC2)cc(C)n1 (centres unmarked) [Compound 89]
101%	15.8 nM	73%	316 nM	–	–	Cc1cnc(OC2CCN(C(C)c3nc4c(cc3F)OCCO4)CC2)c(C)n1 (centres unmarked) [Compound 84]
93%	12.6 nM	59%	100 nM	–	–	CC(c1nc2c(cc1F)OCCO2)N1CCC(Oc2ccc(C(=O)N(C(C)C)C(C)C)nc2)CC1 (centres unmarked) [Compound 123]
92%	1000 nM	17%	> 1000 nM	–	–	Cc1cc(OC2CCN(C(C)c3cnc4c(c3)OCCO4)CC2)cc(C(F)(F)F)n1 (centres unmarked) [Compound 19]
101%	7.94 nM	79%	100 nM	–	–	Cc1ncc(OC2CCN(C(C)c3nc4c(cc3F)OCCO4)CC2)nc1C (centres unmarked) [Compound 110]
